Measured values: US9415055B2, “Cyclic amines” (H. Lundbeck A/S, priority 2012, dated 2016)

Molecular target: P2X7 receptor (Homo sapiens (Human), UniProt Q99572)
Experiment: P2X7 FLIPR assay: antagonism of BzATP response in 293 HEK cells stably expressing P2X7 receptor
Assay type: cell-based
Conditions: FLIPR fluorescence (Fluo-4), agonist BzATP, 293 HEK cells stably transfected with P2X7 receptor
How it was run: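 Antagonist IC50 derived from FLIPR Tetra Fluo-4 calcium signal evoked by BzATP. Compound pre-incubation was 30 min at room temperature on P2X7-expressing HEK293 cells, seeded 24 h before in low-serum medium and dye-loaded 30 min at 37 °C then 30 min at RT.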

P2X7 receptor, sequence (Q99572 whole entry): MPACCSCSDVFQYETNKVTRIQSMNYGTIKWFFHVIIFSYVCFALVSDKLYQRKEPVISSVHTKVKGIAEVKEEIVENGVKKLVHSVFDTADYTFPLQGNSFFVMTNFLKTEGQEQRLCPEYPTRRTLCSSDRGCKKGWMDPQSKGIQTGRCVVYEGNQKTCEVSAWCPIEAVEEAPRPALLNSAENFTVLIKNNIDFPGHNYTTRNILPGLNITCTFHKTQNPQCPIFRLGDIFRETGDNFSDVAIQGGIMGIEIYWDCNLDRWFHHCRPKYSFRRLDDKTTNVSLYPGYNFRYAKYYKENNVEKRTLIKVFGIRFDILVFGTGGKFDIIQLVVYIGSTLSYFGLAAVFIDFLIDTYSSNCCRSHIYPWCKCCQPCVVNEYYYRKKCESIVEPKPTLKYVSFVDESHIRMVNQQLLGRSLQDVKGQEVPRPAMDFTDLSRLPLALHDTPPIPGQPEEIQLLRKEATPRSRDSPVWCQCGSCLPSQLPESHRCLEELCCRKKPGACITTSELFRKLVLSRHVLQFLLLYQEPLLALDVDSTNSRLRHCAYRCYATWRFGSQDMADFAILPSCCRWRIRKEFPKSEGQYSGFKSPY

| SMILES | IC50 [nM] |
| --- | --- |
| N#Cc1ccc(Cl)c(C(=O)NCC(c2ccc(Cl)cc2)N2CCOCC2)c1 (single isomer, unassigned; (+)) [(+)2-chloro-N-[2-(4-chlorophenyl)-2-morpholino-ethyl]-5-cyan] [(+)2-chloro-N-(2-(4-chlorophenyl)-2-morpholinoethyl)-5-cyanobenzamide] | 23 |
| Cc1ncc(C(CNC(=O)c2cccc(Cl)c2Cl)N2CCCCC2)cn1 (single isomer, unassigned; (-)) [(−)2,3-dichloro-N-[2-(2-methylpyrimidin-5-yl)-2-(1-piperidyl] [(−)2,3-dichloro-N-(2-(2-methylpyrimidin-5-yl)-2-(piperidin-1-yl)ethyl)benzamide] | 21 |
| COc1cccc(C(=O)NCC(c2cnc(C(F)(F)F)nc2)N2CCOCC2)c1Cl (single isomer, unassigned; (+)) [(+)2-chloro-3-methoxy-N-[2-morpholino-2-[2-(trifluoromethyl)] [(+)2-chloro-3-methoxy-N-(2-morpholino-2-(2-(trifluoromethyl)pyrimidin-5-yl)ethyl)benzamide] | 16 |
| CCc1ncc(C(CNC(=O)c2ccccc2Cl)N2CCC(F)(F)CC2)cn1 (single isomer, unassigned; (-)) [(−)2-chloro-N-[2-(4,4-difluoro-1-piperidyl)-2-(2-ethylpyrimi] [(−)2-chloro-N-(2-(4,4-difluoropiperidin-1-yl)-2-(2-ethylpyrimidin-5-yl)ethyl)benzamide] | 17 |
| Cc1ccc(C(CNC(=O)c2c(F)cccc2Cl)N2CCC(F)(F)CC2)cn1 (single isomer, unassigned; (-)) [(−)2-chloro-N-[2-(4,4-difluoro-1-piperidyl)-2-(6-methyl-3-py] [(−)2-chloro-N-(2-(4,4-difluoropiperidin-1-yl)-2-(6-methylpyridin-3-yl)ethyl)-6-fluorobenzamide] | 22 |
| Cc1ncc(C(CNC(=O)c2cccc(OC(F)(F)F)c2Cl)N2CCC(F)(F)CC2)cn1 (single isomer, unassigned; (-)) [(−)2-chloro-N-[2-(4,4-difluoro-1-piperidyl)-2-(2-methylpyrim] [(−)2-chloro-N-(2-(4,4-difluoropiperidin-1-yl)-2-(2-methylpyrimidin-5-yl)ethyl)-3-(trifluoromethoxy)benzamide] | 40 |
| Cc1ncc(C(CNC(=O)c2c(Cl)cccc2Cl)N2CCC(F)CC2)cn1 (single isomer, unassigned; (-)) [(−)2,6-dichloro-N-[2-(4-fluoro-1-piperidyl)-2-(2-methylpyrim] [(−)2,6-dichloro-N-(2-(4-fluoropiperidin-1-yl)-2-(2-methylpyrimidin-5-yl)ethyl)benzamide] | 53 |
| Cn1cc(C(CNC(=O)c2cccc(Cl)c2Cl)N2CCC(F)(F)CC2)cn1 (single isomer, unassigned; (-)) [(−)2,3-dichloro-N-[2-(4,4-difluoro-1-piperidyl)-2-(1-methylp] [(−)2,3-dichloro-N-(2-(4,4-difluoropiperidin-1-yl)-2-(1-methyl-1H-pyrazol-4-yl)ethyl)benzamide] | 25 |
| CCc1ncc(C(CNC(=O)c2c(Cl)cccc2Cl)N2CCC(F)(F)CC2)cn1 (single isomer, unassigned; (-)) [(−)2,6-dichloro-N-[2-(4,4-difluoro-1-piperidyl)-2-(2-ethylpy] [(−)2,6-dichloro-N-(2-(4,4-difluoropiperidin-1-yl)-2-(2-ethylpyrimidin-5-yl)ethyl)benzamide] | 27 |
| Cc1ncc(C(CNC(=O)c2cccc(Cl)c2Cl)N2CCCOCC2)cn1 (stereo not shown) [2,3-dichloro-N-(2-(2-methylpyrimidin-5-yl)-2-(1,4-oxazepan-4-yl)ethyl)benzamide] | 29 |
| Cc1ccc(C(CNC(=O)c2cccc(Cl)c2Cl)N2CCOCC2)cn1 (single isomer, unassigned; (+)) [(+)2,3-Dichloro-N-[2-(6-methyl-3-pyridyl)-2-morpholino-ethyl]benzamide] | 44 |
| O=C(NCC(c1cnc(C(F)(F)F)nc1)N1CCC(F)(F)CC1)c1c(F)cc(F)cc1Cl (single isomer, unassigned; (-)) [(−)2-chloro-N-[2-(4,4-difluoro-1-piperidyl)-2-[2-(trifluorom] [(−)2-chloro-4,6-difluoro-N-(2-(4,4-difluoropiperidin-1-yl)-2-(2-(trifluoromethyl)pyrimidin-5-yl)ethyl)benzamide] | 31 |
| COc1ccccc1C(=O)NCC(c1ccc(C(F)(F)F)nc1)N1CCOCC1 (single isomer, unassigned; (-)) [(−)2-methoxy-N-[2-morpholino-2-[6-(trifluoromethyl)-3-pyridy] [(−)2-Methoxy-N-[2-morpholin-4-yl-2-(6-trifluoromethyl-pyridin-3-yl)-ethyl]-benzamide] | 21 |
| O=C(NCC(c1ccc(Cl)cc1)N1CCC(F)(F)CC1)c1cccc(Cl)c1Cl (stereo not shown) [N-[2-(4-Chloro-phenyl)-2-(4,4-difluoro-piperidin-1-yl)-ethyl]-2,3-dichloro-benzamide] | 46 |
| Cc1ncc(C(CNC(=O)c2c(Cl)ccc(F)c2Cl)N2CCC(F)(F)CC2)cn1 (single isomer, unassigned; (-)) [(−)2,6-dichloro-N-[2-(4,4-difluoro-1-piperidyl)-2-(2-methylp] [(−)2,6-dichloro-5-fluoro-N-(2-(4,4-difluoropiperidin-1-yl)-2-(2-methylpyrimidin-5-yl)ethyl)benzamide] | 37 |

The next compounds have a lower IC50 than those just listed; values first:

| IC50 [nM] | SMILES |
| --- | --- |
| 6.5 | O=C(NCC(c1cnc(C(F)(F)F)nc1)N1CCC(F)(F)CC1)c1c(F)cc(Cl)cc1Cl (single isomer, unassigned; (-)) [(−)2,4-dichloro-N-[2-(4,4-difluoro-1-piperidyl)-2-[2-(triflu] [(−)2,4-dichloro-6-fluoro-N-(2-(4,4-difluoropiperidin-1-yl)-2-(2-(trifluoromethyl)pyrimidin-5-yl)ethyl)benzamide] |
| 14 | Cc1ncc(C(CNC(=O)c2cccc(Cl)c2Cl)N2CCCC(F)(F)C2)cn1 (single isomer, unassigned; (+)) [(+2,3-dichloro-N-(2-(3,3-difluoropiperidin-1-yl)-2-(2-methylpyrimidin-5-yl)ethyl)benzamide] |
| 0.33 | O=C(NCC(c1ccc(F)cc1)N1CCC(F)(F)CC1)c1cccc(Cl)c1Cl (stereo not shown) [2,3-Dichloro-N-[2-(4,4-difluoro-piperidin-1-yl)-2-(4-fluoro-phenyl)-ethyl]-benzamide] |
| 3.6 | Cc1cccc(C(=O)NCC(c2ccc(Cl)cc2)N2CCC(F)(F)CC2)c1C (stereo not shown) [N-[2-(4-Chloro-phenyl)-2-(4,4-difluoro-piperidin-1-yl)-ethyl]-2,3-dimethyl-benzamide] |
| 4.2 | O=C(NCC(c1ccc(C(F)F)nc1)N1CCC(F)(F)CC1)c1cccc(Cl)c1Cl (single isomer, unassigned; (-)) [(−)2,3-dichloro-N-[2-[6-(difluoromethyl)-3-pyridyl]-2-(4,4-d] [(−)2,3-dichloro-N-(2-(2-(difluoromethyl)pyridin-5-yl)-2-(4,4-difluoropiperidin-1-yl)ethyl)benzamide] |
| 3.2 | O=C(NCC(c1cnc(C(F)(F)F)nc1)N1CCOCC1)c1cccc(Cl)c1Cl (single isomer, unassigned; (-)) [(−)2,3-dichloro-N-[2-morpholino-2-[2-(trifluoromethyl)pyrimi] [(−)2,3-Dichloro-N-[2-morpholino-2-[2-(trifluoromethyl)pyrimidin-5-yl]ethyl]benzamide] |
| 9 | O=C(NCC(c1ccc(C(F)F)nc1)N1CCC(F)(F)CC1)c1ccccc1Cl (single isomer, unassigned; (+)) [(+)2-chloro-N-[2-[6-(difluoromethyl)-3-pyridyl]-2-(4,4-diflu] [(+)2-chloro-N-(2-(2-(difluoromethyl)pyridin-5-yl)-2-(4,4-difluoropiperidin-1-yl)ethyl)benzamide] |
| 15 | Cc1ncc(C(CNC(=O)c2cccc(F)c2Cl)N2CCC(F)(F)CC2)cn1 (single isomer, unassigned; (+)) [(+)2-chloro-N-[2-(4,4-difluoro-1-piperidyl)-2-(2-methylpyrim] [(+)2-chloro-3-fluoro-N-(2-(4,4-difluoropiperidin-1-yl)-2-(2-methylpyrimidin-5-yl)ethyl)benzamide] |
| 8.2 | O=C(NCC(c1cnc(C(F)(F)F)nc1)N1CCOCC1)c1cccc(Cl)c1Cl (stereo not shown) [2,3-dichloro-N-[2-morpholino-2-[2-(trifluoromethyl)pyrimidin] [2,3-Dichloro-N-[2-morpholino-2-[2-(trifluoromethyl)pyrimidin-5-yl]ethyl]benzamide] |
| 8.9 | COc1ccc(F)c(C(=O)NCC(c2cnc(C(F)(F)F)nc2)N2CCC(F)(F)CC2)c1Cl (single isomer, unassigned; (+)) [(+)2-chloro-N-[2-(4,4-difluoro-1-piperidyl)-2-[2-(trifluorom] [(+)2-chloro-N-(2-(4,4-difluoropiperidin-1-yl)-2-(2-(trifluoromethyl)pyrimidin-5-yl)ethyl)-6-fluoro-3-methoxybenzamide] |
| 0.53 | Cc1cccc(C(=O)NC[C@H](c2ccc(Cl)cc2)N2CCOCC2)c1Cl [2-Chloro-N-[(S)-2-(4-chloro-phenyl)-2-morpholin-4-yl-ethyl]-3-methyl-benzamide] |
| 4.7 | O=C(NCC(c1cnc(C(F)(F)F)nc1)N1CCC(F)CC1)c1cccc(Cl)c1Cl (single isomer, unassigned; (-)) [(−)2,3-dichloro-N-[2-(4-fluoro-1-piperidyl)-2-[2-(trifluorom] [(−)2,3-dichloro-N-(2-(4-fluoropiperidin-1-yl)-2-(2-(trifluoromethyl)pyrimidin-5-yl)ethyl)benzamide] |
| 4.6 | O=C(NCC(c1ccc(C(F)(F)F)nc1)N1CCOCC1)c1cccc(Cl)c1Cl (stereo not shown) [2,3-dichloro-N-[2-morpholino-2-[6-(trifluoromethyl)-3-pyridy] [2,3-Dichloro-N-[2-morpholino-2-[6-(trifluoromethyl)-3-pyridyl]ethyl]benzamide] |
